Measurements as given in BigSolDB 2.1.

CO[C@H]1/C=C/O[C@@]2(C)Oc3c(C)c(O)c4c(O)c(c(/C=N/N5CCN(C6CCCC6)CC5)c(O)c4c3C2=O)NC(=O)/C(C)=C\C=C\[C@H](C)[C@H](O)[C@@H](C)[C@@H](O)[C@@H](C)[C@H](OC(C)=O)[C@@H]1C
solubility (mole fraction)
Conditions | 278.15 K | 283.15 K | 288.15 K | 293.15 K | 297.15 K | 303.15 K | 308.15 K | 313.15 K | 318.15 K | 323.15 K
in acetone | 0.000523 | 0.00053 | 0.000536 | 0.000549 | 0.000563 | 0.000576 | 0.000609 | 0.000635 | 0.000668 | 0.000701
in chloroform | 0.0254 | 0.0265 | 0.0281 | 0.0287 | 0.0293 | 0.0299 | 0.0308 | 0.0316 | 0.0326 | 0.0334
in dichloromethane | 0.0159 | 0.0165 | 0.0175 | 0.0184 | 0.0196 | 0.0209 | 0.0224 | – | – | –
in ethanol | 0.000515 | 0.000525 | 0.000541 | 0.000562 | 0.000583 | 0.000604 | 0.000625 | 0.000651 | 0.000677 | 0.000703
in methanol | 0.022 | 0.0224 | 0.0229 | 0.0235 | 0.0242 | 0.0249 | 0.0257 | 0.0267 | 0.0278 | 0.029
